According to ChEMBL document CHEMBL5233233, “Histone deacetylase 3 (HDAC3) inhibitors as anticancer agents: A review” (Eur J Med Chem, 2020):

Columns and labels:
Histone deacetylase 1 [1] = biological target: T1, Histone deacetylase 1 (Homo sapiens, UniProt Q13547); assay: Inhibition of human recombinant HDAC1 expressed in baculovirus by using Boc-L-Lys(Ac)-AMC as substrate measured after 24 hrs by fluorescence based analysis
Histone deacetylase 8 = biological target: T2, Histone deacetylase 8 (Homo sapiens, UniProt Q9BY41); assay: Inhibition of human recombinant HDAC8 expressed in Escherichia coli BL21 (DE3) cells by using Boc-L-Lys(Ac)-AMC as substrate measured after 24 hrs by fluorescence based analysis
T2 sequence (Q9BY41 whole entry): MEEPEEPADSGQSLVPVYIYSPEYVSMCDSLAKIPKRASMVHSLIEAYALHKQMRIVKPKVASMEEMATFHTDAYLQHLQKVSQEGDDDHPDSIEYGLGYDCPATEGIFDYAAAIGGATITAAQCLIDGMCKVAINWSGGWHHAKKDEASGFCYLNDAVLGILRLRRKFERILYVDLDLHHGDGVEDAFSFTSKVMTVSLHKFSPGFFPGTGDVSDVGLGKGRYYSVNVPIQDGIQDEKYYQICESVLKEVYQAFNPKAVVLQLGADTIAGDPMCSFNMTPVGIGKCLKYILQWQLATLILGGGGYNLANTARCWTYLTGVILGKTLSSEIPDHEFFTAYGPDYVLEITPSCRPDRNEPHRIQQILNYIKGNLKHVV

Histone deacetylase 3 [2] = biological target: T3, Histone deacetylase 3 (Homo sapiens, UniProt O15379); assay: Inhibition of human recombinant HDAC3 expressed in baculovirus by using Boc-L-Lys(Ac)-AMC as substrate measured after 24 hrs by fluorescence based analysis
T3 sequence (O15379 whole entry): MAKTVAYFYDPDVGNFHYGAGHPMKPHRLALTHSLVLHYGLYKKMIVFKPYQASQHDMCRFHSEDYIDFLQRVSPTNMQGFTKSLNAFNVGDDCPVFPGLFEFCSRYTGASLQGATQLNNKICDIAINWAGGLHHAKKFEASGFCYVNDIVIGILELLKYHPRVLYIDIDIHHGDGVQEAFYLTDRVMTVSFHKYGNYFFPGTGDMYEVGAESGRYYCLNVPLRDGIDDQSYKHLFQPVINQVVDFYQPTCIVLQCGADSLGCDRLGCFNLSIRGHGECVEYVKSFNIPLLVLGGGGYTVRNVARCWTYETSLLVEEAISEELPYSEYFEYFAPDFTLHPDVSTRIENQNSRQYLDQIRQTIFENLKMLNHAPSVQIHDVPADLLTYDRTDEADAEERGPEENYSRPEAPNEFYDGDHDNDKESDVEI

Histone deacetylase 2 [3] = biological target: T4, Histone deacetylase 2 (Homo sapiens, UniProt Q92769); assay: Inhibition of human recombinant HDAC2 expressed in baculovirus by using Boc-L-Lys(Ac)-AMC as substrate measured after 24 hrs by fluorescence based analysis
T4 sequence (Q92769 whole entry): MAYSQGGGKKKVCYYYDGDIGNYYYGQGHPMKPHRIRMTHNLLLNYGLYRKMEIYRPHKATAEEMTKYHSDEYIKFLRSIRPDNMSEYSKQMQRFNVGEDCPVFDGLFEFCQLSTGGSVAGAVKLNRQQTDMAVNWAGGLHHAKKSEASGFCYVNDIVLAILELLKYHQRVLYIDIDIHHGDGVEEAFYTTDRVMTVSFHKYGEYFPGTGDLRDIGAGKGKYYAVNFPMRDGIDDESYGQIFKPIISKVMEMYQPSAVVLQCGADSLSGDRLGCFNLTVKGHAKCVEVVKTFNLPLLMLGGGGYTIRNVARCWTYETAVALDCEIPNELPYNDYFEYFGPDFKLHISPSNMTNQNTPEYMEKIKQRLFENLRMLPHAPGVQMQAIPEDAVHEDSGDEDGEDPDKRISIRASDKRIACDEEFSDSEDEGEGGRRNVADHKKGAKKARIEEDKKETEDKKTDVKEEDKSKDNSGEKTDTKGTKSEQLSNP

Histone deacetylase 2 [4] = biological target: T4, Histone deacetylase 2; assay: Inhibition of HDAC2 (unknown origin)
Histone deacetylase 3 [5] = biological target: T3, Histone deacetylase 3; assay: Inhibition of human HDAC3 using human HeLa cell nuclear extract at 1 uM measured after 60 mins by fluorescence assay; format: subcellular, Nucleus
Histone deacetylase 1 [6] = biological target: T1, Histone deacetylase 1; assay: Inhibition of human HDAC1 using human HeLa cell nuclear extract at 1 uM measured after 60 mins by fluorescence assay; format: subcellular, Nucleus
Histone deacetylase 2 [7] = biological target: T4, Histone deacetylase 2; assay: Inhibition of human HDAC2 using human HeLa cell nuclear extract at 1 uM measured after 60 mins by fluorescence assay; format: subcellular, Nucleus
[8] = biological target: T5, Protein deacetylase HDAC6 (Homo sapiens, UniProt Q9UBN7); assay: Inhibition of HDAC6 (unknown origin) using Boc-Lys (Ac)-AMC as substrate measured after 30 mins by fluorescence based analysis
T5 sequence (Q9UBN7 whole entry): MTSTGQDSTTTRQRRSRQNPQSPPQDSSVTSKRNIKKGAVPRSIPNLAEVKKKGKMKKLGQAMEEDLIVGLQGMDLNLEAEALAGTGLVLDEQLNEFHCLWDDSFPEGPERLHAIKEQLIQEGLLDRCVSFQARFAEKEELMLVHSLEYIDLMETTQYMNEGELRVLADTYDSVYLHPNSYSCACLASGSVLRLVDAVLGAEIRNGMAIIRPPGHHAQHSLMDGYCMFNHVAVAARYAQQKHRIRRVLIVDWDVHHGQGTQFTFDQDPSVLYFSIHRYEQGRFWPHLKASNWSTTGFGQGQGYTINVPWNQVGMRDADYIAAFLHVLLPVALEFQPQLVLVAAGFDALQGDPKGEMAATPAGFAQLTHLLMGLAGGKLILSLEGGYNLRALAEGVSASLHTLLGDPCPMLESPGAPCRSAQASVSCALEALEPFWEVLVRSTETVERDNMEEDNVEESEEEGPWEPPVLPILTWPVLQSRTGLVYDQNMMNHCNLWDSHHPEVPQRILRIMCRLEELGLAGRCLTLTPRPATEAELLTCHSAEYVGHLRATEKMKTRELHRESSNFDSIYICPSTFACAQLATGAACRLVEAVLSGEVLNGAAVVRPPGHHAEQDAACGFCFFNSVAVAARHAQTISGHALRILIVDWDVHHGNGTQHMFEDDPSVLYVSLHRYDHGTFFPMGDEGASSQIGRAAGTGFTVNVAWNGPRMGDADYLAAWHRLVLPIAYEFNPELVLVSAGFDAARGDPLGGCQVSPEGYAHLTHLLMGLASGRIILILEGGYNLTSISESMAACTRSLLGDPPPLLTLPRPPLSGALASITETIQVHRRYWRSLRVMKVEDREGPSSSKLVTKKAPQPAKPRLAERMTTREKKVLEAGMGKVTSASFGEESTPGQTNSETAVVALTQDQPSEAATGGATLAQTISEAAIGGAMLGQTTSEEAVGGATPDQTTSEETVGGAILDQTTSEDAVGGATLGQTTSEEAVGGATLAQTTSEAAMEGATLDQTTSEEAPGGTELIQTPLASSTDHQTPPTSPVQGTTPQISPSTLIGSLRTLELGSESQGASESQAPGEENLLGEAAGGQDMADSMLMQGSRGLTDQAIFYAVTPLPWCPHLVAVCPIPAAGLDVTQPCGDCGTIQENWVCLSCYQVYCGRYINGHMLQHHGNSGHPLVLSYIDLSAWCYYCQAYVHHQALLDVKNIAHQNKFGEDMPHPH

Histone deacetylase 1 [9] = biological target: T1, Histone deacetylase 1; assay: Inhibition of HDAC1 (unknown origin) using Boc-Lys (Ac)-AMC as substrate measured after 30 mins by fluorescence based analysis
Histone deacetylase 3 [10] = biological target: T3, Histone deacetylase 3; assay: Inhibition of HDAC3 (unknown origin) using Boc-Lys (Ac)-AMC as substrate measured after 30 mins by fluorescence based analysis
Histone deacetylase 3 [11] = biological target: T3, Histone deacetylase 3; assay: Inhibition of HDAC3 (unknown origin)
Histone deacetylase = assay: Inhibition of human HDAC using human HeLa cell nuclear extract measured after 60 mins by fluorescence assay; format: subcellular, Nucleus
Histone deacetylase 3 [12] = biological target: T3, Histone deacetylase 3; assay: Inhibition of human HDAC3 using fluorogenic as substrate measured after 30 mins by fluorescence based analysis

T1 sequence (Q13547 whole entry): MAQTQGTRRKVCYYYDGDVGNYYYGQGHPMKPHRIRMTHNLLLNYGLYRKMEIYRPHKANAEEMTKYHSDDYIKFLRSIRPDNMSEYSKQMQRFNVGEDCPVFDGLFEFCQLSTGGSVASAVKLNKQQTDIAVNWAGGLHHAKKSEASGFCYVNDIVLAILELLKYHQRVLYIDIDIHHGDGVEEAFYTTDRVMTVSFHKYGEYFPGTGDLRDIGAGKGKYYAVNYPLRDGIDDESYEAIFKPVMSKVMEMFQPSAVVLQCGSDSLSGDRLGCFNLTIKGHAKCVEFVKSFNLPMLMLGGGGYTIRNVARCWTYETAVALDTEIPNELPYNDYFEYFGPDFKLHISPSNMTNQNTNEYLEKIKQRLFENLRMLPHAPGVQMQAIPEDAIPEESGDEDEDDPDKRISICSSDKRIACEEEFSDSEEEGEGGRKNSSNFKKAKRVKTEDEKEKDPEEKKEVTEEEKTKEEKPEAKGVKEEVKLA

Row | IC50 (Histone deacetylase 1 [1]) | IC50 (Histone deacetylase 8) | IC50 (Histone deacetylase 3 [2]) | IC50 (Histone deacetylase 2 [3]) | IC50 (Histone deacetylase 3 [5]) | IC50 (Histone deacetylase 1 [6]) | IC50 (Histone deacetylase 2 [7]) | SMILES | other results
1 | 220 nM | 2100 nM | 1000 nM | 2900 nM |  |  |  | O=C(CCCCCCNCc1ccc([N+](=O)[O-])cc1)NO | 
2 |  |  |  |  |  |  |  | Nc1ccccc1NC(=O)c1ccc(-c2cn(CCc3cccc([N+](=O)[O-])c3)nn2)s1 | IC50 (Histone deacetylase 2 [4]): > 100 nM
3 |  |  |  |  | 39 nM | 341 nM | 517 nM | Cc1noc(C)c1-c1ccc2c(c1)c(Cc1ccc(F)cc1)cn2CCCCCC(=O)NO | 
4 |  |  |  |  | 18 nM | 431 nM | 438 nM | Cc1ccc(Cc2cn(CCCCCCC(=O)NO)c3ccc(-c4c(C)noc4C)cc23)cc1 | 
5 | 340 nM | 4600 nM | 1300 nM | 3700 nM |  |  |  | O=C(CCCCCCN(Cc1cc2ccccc2[nH]1)Cc1cc2ccccc2[nH]1)NO | 
6 |  |  |  |  |  |  |  | COC(=O)/C=C/c1ccc(OCCCNc2cc3c([nH]c4ccccc43)c(-c3ccc(OC)cc3)n2)c(OC)c1 | IC50 [8]: 13 nM; IC50 (Histone deacetylase 1 [9]): 27 nM; IC50 (Histone deacetylase 3 [10]): 148 nM
7 |  |  |  |  |  | 181 nM | 298 nM | Cc1noc(C)c1-c1ccc2c(c1)c(Cc1ccc(F)cc1)cn2CCCCCCC(=O)NO | 
8 |  |  |  |  | 23 nM | 179 nM | 118 nM | Cc1noc(C)c1-c1ccc2c(c1)c(Cc1ccccc1)cn2CCCCCCC(=O)NO | 
9 |  |  |  |  | 50 nM | 220 nM | > 1000 nM | Cc1ccccc1Cc1cn(CCCCCCC(=O)NO)c2ccc(-c3c(C)noc3C)cc12 | 
10 |  |  |  |  |  |  |  | CCC(=O)CCCCC[C@H](NC(=O)C(C)(C)N(C)C)c1ncc(-c2cc3ccccc3nc2OC)o1 | IC50 (Histone deacetylase 3 [11]): 0.6 nM
11 | 220 nM | 1700 nM | 240 nM | 1500 nM |  |  |  | O=C(CCCCCCNCc1ccc(F)cc1)NO | 
12 | 140 nM | 2800 nM | 190 nM | 790 nM |  |  |  | Cc1cc(CNCCCCCCC(=O)NO)ccc1F | 
13 |  |  |  |  | 24 nM | 253 nM | 127 nM | Cc1cccc(Cc2cn(CCCCCCC(=O)NO)c3ccc(-c4c(C)noc4C)cc23)c1 | 
14 |  |  |  |  | 28 nM | 240 nM | 139 nM | Cc1noc(C)c1-c1ccc2c(c1)c(CCc1ccccc1)cn2CCCCCCC(=O)NO | 
15 | 840 nM | 4100 nM | 1100 nM | 3000 nM |  |  |  | O=C(CCCCCCN(Cc1ccc(-c2ccccc2)s1)Cc1ccc(-c2ccccc2)s1)NO | 
16 |  |  |  |  |  |  |  | O=C(NO)c1ccc(NC(=O)[C@@H](NC(=O)c2ccc3ccccc3c2)c2ccccc2)cc1 | IC50 (Histone deacetylase): 14.3 nM; IC50 (Histone deacetylase 3 [12]): 16.8 nM
17 | 39 nM | 320 nM | 68 nM | 320 nM |  |  |  | O=C(CCCCCCNCc1ccc2ccccc2c1)NO | 
18 |  |  |  |  |  |  |  | COC(=O)/C=C/c1ccc(OCCNc2cc3c([nH]c4ccccc43)c(-c3ccc(OC)cc3)n2)c(OC)c1 | IC50 [8]: 17 nM; IC50 (Histone deacetylase 1 [9]): 32 nM; IC50 (Histone deacetylase 3 [10]): 125 nM
19 |  |  |  |  |  |  |  | CCC(=O)CCCCC[C@H](NC(=O)N1CCOCC1)c1ncc(-c2cc3ccccc3nc2OC)o1 | IC50 (Histone deacetylase 3 [11]): 7 nM
